Data taken from publication PMC5641330, “Prediction of a Therapeutic Dose for Buagafuran, a Potent Anxiolytic Agent by Physiologically Based Pharmacokinetic/Pharmacodynamic Modeling Starting from Pharmacokinetics in Rats and Human” (Frontiers in Pharmacology, 2017).

Assays:
[1] = tested on: healthy volunteers; conditions: cited from earlier work
[2] = Plasma protein binding by equilibrium dialysis, rat plasma; format: in vitro ADME; conditions: 0.5–2 μg/mL
Description: The plasma protein binding of buagafuran (0.5–2 μg/mL) was investigated by equilibrium dialysis. Aliquots (0.5 mL) of plasma were dialyzed against 10 mL phosphate buffered saline containing a ^3H-buagafuran tracer over a membrane with an 8,000- to 12,000-dalton molecular weight cutoff. Dialysis experiment was performed for 60 h at 4 °C. After the dialysis period, 100 μL of the PBS fraction (containing unbound buagafuran) and 100 μL of the plasma fraction (containing both bound and unbound drug) was taken for liquid scintillation counting. The ratio of buagafuran concentration in buffer to that in plasma was applied to calculate the unbound fraction (Fu).

CCCCC1=CCC[C@@]2(C)CC[C@@H]3C[C@]12OC3(C)C [buagafuran]
well tolerated multiple doses ([1]; healthy volunteers, phase I, ref Wang et al., 2011, Chen X. et al., 2013, Yang et al.): up to 120 mg twice daily | most common side effect ([1]; phase I trials, ref Zhang, 1997, Li et al., 2001): drowsiness | concentration dependence of plasma protein binding ([2]; rat plasma): no evident concentration-dependent binding | fraction unbound at 60 h ([2]; rat, plasma, equilibrium dialysis, read-out: Fup rat (unbound fraction in rat plasma)): 0.031
